Source: the Kinase Knowledgebase extract (Sharma et al. 2016)

Target: CDK2 (human) (UniProt P24941)
Test: Enzyme Assay
Details: for inhibition: concentration not given here

Row | Compound | inhibition | Ki
1 | CC(=O)CC(C(=O)N1CCC(Nc2nc(N)c(C(=O)c3c(F)cccc3F)s2)CC1)c1ccccc1 (stereo not given) | 17% | 
2 | CCCC(CC)CC(=O)N1CCC(Nc2nc(N)c(C(=O)c3c(F)cccc3F)s2)CC1 (stereo not given) | 31% | 
3 | Nc1nc(NC2CCN(C(=O)[C@@H]3C[C@H]3c3ccccc3)CC2)sc1C(=O)c1c(F)cccc1F | -9% | 
4 | Nc1nc(NC2CCN(S(=O)(=O)CCCn3cncn3)CC2)sc1C(=O)c1c(F)cccc1F |  | 4.4 nM
5 | Nc1nc(NC2CCN(C(=O)CS/C=C\c3ccccc3)CC2)sc1C(=O)c1c(F)cccc1F | 59% | 
6 | Nc1nc(NC2CCN(C(=O)C(CO)c3ccccc3)CC2)sc1C(=O)c1c(F)cccc1F (stereo not given) | 57% | 
7 | C=CCCCC(=O)N1CCC(Nc2nc(N)c(C(=O)c3c(F)cccc3F)s2)CC1 | 39% | 
8 | NC(=S)Nc1cccc(C(=O)N2CCC(Nc3nc(N)c(C(=O)c4c(F)cccc4F)s3)CC2)c1 | 75% | 
9 | CCC(C)(C)C(=O)N1CCC(Nc2nc(N)c(C(=O)c3c(F)cccc3F)s2)CC1 | 32% | 
10 | CCCCCC#CC(=O)N1CCC(Nc2nc(N)c(C(=O)c3c(F)cccc3F)s2)CC1 | 62% | 
11 | CCSc1ncccc1C(=O)N1CCC(Nc2nc(N)c(C(=O)c3c(F)cccc3F)s2)CC1 | 38% | 
12 | Nc1nc(NC2CCN(C(=O)c3ccc(-c4ccccc4)cc3)CC2)sc1C(=O)c1c(F)cccc1F | -11% | 
13 | COC(=O)[C@H]1CC=CC[C@H]1C(=O)N1CCC(Nc2nc(N)c(C(=O)c3c(F)cccc3F)s2)CC1 | 22% | 
14 | CO[C@](C(=O)N1CCC(Nc2nc(N)c(C(=O)c3c(F)cccc3F)s2)CC1)(c1ccccc1)C(F)(F)F | -29% | 
15 | CCOC(=O)CC(=O)N1CCC(Nc2nc(N)c(C(=O)c3c(F)cccc3F)s2)CC1 | -13% | 
16 | CCOCCC(=O)N1CCC(Nc2nc(N)c(C(=O)c3c(F)cccc3F)s2)CC1 | 18% | 
17 | COc1cc(C(O)C(=O)N2CCC(Nc3nc(N)c(C(=O)c4c(F)cccc4F)s3)CC2)ccc1O (stereo not given) | 26% | 
18 | CCOc1cccc(CC(=O)N2CCC(Nc3nc(N)c(C(=O)c4c(F)cccc4F)s3)CC2)c1 | 77% | 
19 | Cc1ccc(OCC(=O)N2CCC(Nc3nc(N)c(C(=O)c4c(F)cccc4F)s3)CC2)cc1 | 57% | 
20 | Nc1cc(C(=O)N2CCC(Nc3nc(N)c(C(=O)c4c(F)cccc4F)s3)CC2)ccc1Cl | 50% | 
21 | Nc1nc(NC2CCN(C(=O)/C=C/c3cc(O)ccc3O)CC2)sc1C(=O)c1c(F)cccc1F | 80% | 
22 | CC(C)(CO)C(=O)N1CCC(Nc2nc(N)c(C(=O)c3c(F)cccc3F)s2)CC1 | 41% | 

Other lines, results leading:

Row | inhibition | Ki | Compound
23 | 67% |  | C[C@H](O)C(=O)N1CCC(Nc2nc(N)c(C(=O)c3c(F)cccc3F)s2)CC1
24 | 50% |  | Cc1cccc(/C=C/C(=O)N2CCC(Nc3nc(N)c(C(=O)c4c(F)cccc4F)s3)CC2)c1
25 | 35% |  | CC(CC(=O)N1CCC(Nc2nc(N)c(C(=O)c3c(F)cccc3F)s2)CC1)CC(C)(C)C (stereo not given)
26 | 5% |  | Nc1nc(NC2CCN(C(=O)CCC(=O)c3ccccc3)CC2)sc1C(=O)c1c(F)cccc1F
27 | 65% |  | C[C@H]1CC[C@H](C(=O)N2CCC(Nc3nc(N)c(C(=O)c4c(F)cccc4F)s3)CC2)CC1
28 | 55% |  | Nc1nc(NC2CCN(S(=O)(=O)c3ccc(CNC(=O)c4ccc(O)cc4)s3)CC2)sc1C(=O)c1c(F)cccc1F
29 | 41% |  | CC[C@@H](C(=O)N1CCC(Nc2nc(N)c(C(=O)c3c(F)cccc3F)s2)CC1)c1ccccc1
30 | 25% |  | CCC(C)(O)C(=O)N1CCC(Nc2nc(N)c(C(=O)c3c(F)cccc3F)s2)CC1 (stereo not given)
31 | -45% |  | CC(C)[C@@H]1CC[C@@H](C)C[C@H]1OC(=O)N1CCC(Nc2nc(N)c(C(=O)c3c(F)cccc3F)s2)CC1
32 | 40% |  | Nc1nc(NC2CCN(C(=O)CCc3cccc(O)c3)CC2)sc1C(=O)c1c(F)cccc1F
33 | -32% |  | Nc1nc(NC2CCN(S(=O)(=O)c3cccc4cccnc34)CC2)sc1C(=O)c1c(F)cccc1F
34 | 15% |  | CC(=O)CCC(=O)N1CCC(Nc2nc(N)c(C(=O)c3c(F)cccc3F)s2)CC1
35 | 12% |  | Nc1nc(NC2CCN(C(=O)c3nc4ccccc4nc3O)CC2)sc1C(=O)c1c(F)cccc1F
